The assay concerns sprouting from wild-type, TFΔCT and PAR-2-deficient aortas. The assay is described as follows: ex vivo angiogenesis assay (aortic ring sprouting in Matrigel). The format is cell-based, mouse. As to conditions: for sprouting induced by single factor replacing serum: wild-type and TFΔCT aortas, EGM without serum, day 4, growth factors 20 ng/ml, VIIa 50 nM (FIG. 2c). As for the experimental part: Angiogenesis assays. The ex vivo angiogenesis assay was adopted from the rat aortic sprouting model described by Masson et al. Biol. Proced. […] Thoracic aortas from 8-11 week old wild-type, TFΔCT, PAR-2-deficient, and TFΔCT/PAR-2-deficient mice of either sex were embedded in Matrigel, and overlaid with EGM supplemented with 5% serum, growth factors, or inhibitors at the following concentrations: VEGF, bFGF, and PDGF: 20 ng/ml; hirudin: 500 nM, VIIai: […], NAPc2: […], NAP5: 1 μM, VIIa: 50 nM. In most cases, the number of aortic sprouts was determined at day 3 and 4 without knowledge of the genotype. Aortic ring RNA was isolated by Trizol (Invitrogen) extraction using standard procedures, digested with DNAaseI, followed by RT-PCR for β-actin and TF. […] Tests used 2 different virus doses, referred to as high (1.1×10^10 virus particles/ml) and low (5×10^9 particles/ml). For confocal fluorescence microscopy, aortic pieces with a minimum of surrounding Matrigel were fixed with 4% paraformaldehyde and methanol, incubated with primary and secondary antibodies (24 hours each), and mounted in anti-fade medium (Vector laboratories). Alternatively, cryosections of OCT-embedded aortas were fixed with acetone and stained as described above.

In the case of “PDGF-AA: selective agonist for PDGF receptor a”, the “sprouting induced by single factor replacing serum” value (from here on “sprouting induced”) is “None of these factors promoted substantial sprouting”.

Turning to VEGF, the “sprouting induced” value is “None of these factors promoted substantial sprouting”. In addition, where the note is “VEGF 20 ng/ml, no serum, day 3 (FIG. 2a)”, the “sprouting of aortas stimulated with VEGF in the absence of serum” value is given as “very limited sprouting”. Also, the “difference in sprouting TFΔCT versus wild-type aortas with serum supplemented with VEGF” value (serum plus VEGF 20 ng/ml, day 3 (FIG. 2a)) is on record as “did not abolish the difference in sprouting”.

For the substance bFGF: pro-angiogenic growth factor, the “sprouting induced” value is recorded as “None of these factors promoted substantial sprouting”.

With hirudin [reference compound], the “effect of protease inhibitor on aortic sprouting” value (wild-type and TFΔCT aortas in serum, 3 days, hirudin 500 nM, NAP5 1 μM (FIG. 2b)) is “no effect on sprouting”.

The values are drawn from patent US20070207154A1, “METHOD OF MODULATING VASCULARIZATION” (priority 2004, published 2007).
